Measured values: the NIST ThermoML archive (doi:10.1016/j.jct.2013.02.023)
Several values for one entry are separate records, joined by “and”; a condition that tells them apart may be missing. Equal entries are not always repeated. ± gives the expanded uncertainty stated by the source.

Test: molar heat capacity at constant pressure
Conditions: 101.33 kPa, relaxation calorimetry - Quantum Design PPMS

O=P([O-])([O-])OP(=O)([O-])[O-].O=P([O-])([O-])OP(=O)([O-])[O-].O=P([O-])([O-])OP(=O)([O-])[O-].[Fe+3].[Fe+3].[Fe+3].[Fe+3] [iron(III) diphosphate]
molar heat capacity at constant pressure (1 K, Crystal 3): 0.08105 ± 0.0086 J/K/mol
molar heat capacity at constant pressure (1.909 K, Crystal 3): 0.1843 ± 0.019 J/K/mol
molar heat capacity at constant pressure (2 K, Crystal 3): 0.2057 ± 0.021 J/K/mol
molar heat capacity at constant pressure (2.045 K, Crystal 3): 0.2088 ± 0.021 J/K/mol
molar heat capacity at constant pressure (2.21 K, Crystal 3): 0.2418 ± 0.025 J/K/mol
molar heat capacity at constant pressure (2.506 K, Crystal 3): 0.3014 ± 0.03 J/K/mol
molar heat capacity at constant pressure (2.763 K, Crystal 3): 0.3632 ± 0.037 J/K/mol
molar heat capacity at constant pressure (3 K, Crystal 3): 0.4233 ± 0.044 J/K/mol
molar heat capacity at constant pressure (3.058 K, Crystal 3): 0.4449 ± 0.045 J/K/mol
molar heat capacity at constant pressure (3.392 K, Crystal 3): 0.553 ± 0.056 J/K/mol
molar heat capacity at constant pressure (3.803 K, Crystal 3): 0.7103 ± 0.072 J/K/mol
molar heat capacity at constant pressure (4 K, Crystal 3): 0.8002 ± 0.082 J/K/mol
molar heat capacity at constant pressure (4.207 K, Crystal 3): 0.9081 ± 0.091 J/K/mol
molar heat capacity at constant pressure (4.685 K, Crystal 3): 1.188 ± 0.12 J/K/mol
molar heat capacity at constant pressure (5 K, Crystal 3): 1.41 ± 0.14 J/K/mol
molar heat capacity at constant pressure (5.203 K, Crystal 3): 1.56 ± 0.16 J/K/mol
molar heat capacity at constant pressure (5.797 K, Crystal 3): 2.097 ± 0.21 J/K/mol
molar heat capacity at constant pressure (6 K, Crystal 3): 2.314 ± 0.24 J/K/mol
molar heat capacity at constant pressure (6.489 K, Crystal 3): 2.871 ± 0.29 J/K/mol
molar heat capacity at constant pressure (7 K, Crystal 3): 3.559 ± 0.36 J/K/mol
molar heat capacity at constant pressure (7.172 K, Crystal 3): 3.81 ± 0.38 J/K/mol
molar heat capacity at constant pressure (7.975 K, Crystal 3): 5.084 ± 0.51 J/K/mol
molar heat capacity at constant pressure (8 K, Crystal 3): 5.127 ± 0.52 J/K/mol
molar heat capacity at constant pressure (8.875 K, Crystal 3): 6.71 ± 0.67 J/K/mol
molar heat capacity at constant pressure (9 K, Crystal 3): 6.952 ± 0.71 J/K/mol
molar heat capacity at constant pressure (10 K, Crystal 3): 9.006 ± 0.22 J/K/mol
molar heat capacity at constant pressure (10.03 K, Crystal 3): 9.074 ± 0.91 J/K/mol
molar heat capacity at constant pressure (11 K, Crystal 3): 11.23 ± 0.27 J/K/mol
molar heat capacity at constant pressure (11.16 K, Crystal 3): 11.61 ± 1.2 J/K/mol
molar heat capacity at constant pressure (12 K, Crystal 3): 13.56 ± 0.33 J/K/mol
molar heat capacity at constant pressure (12.39 K, Crystal 3): 14.49 ± 1.4 J/K/mol
molar heat capacity at constant pressure (13 K, Crystal 3): 15.98 ± 0.39 J/K/mol
molar heat capacity at constant pressure (13.77 K, Crystal 3): 17.87 ± 1.8 J/K/mol
molar heat capacity at constant pressure (14 K, Crystal 3): 18.43 ± 0.45 J/K/mol
molar heat capacity at constant pressure (15 K, Crystal 3): 20.84 ± 0.5 J/K/mol
molar heat capacity at constant pressure (15.31 K, Crystal 3): 21.61 ± 2.2 J/K/mol
molar heat capacity at constant pressure (16 K, Crystal 3): 23.37 ± 0.56 J/K/mol
molar heat capacity at constant pressure (17 K, Crystal 3): 26.01 ± 2.6 J/K/mol and 26.02 ± 0.63 J/K/mol
molar heat capacity at constant pressure (18 K, Crystal 3): 28.75 ± 0.69 J/K/mol
molar heat capacity at constant pressure (18.85 K, Crystal 3): 31.22 ± 3.1 J/K/mol
molar heat capacity at constant pressure (19 K, Crystal 3): 31.74 ± 3.2 J/K/mol and 31.7 ± 0.76 J/K/mol
molar heat capacity at constant pressure (19.52 K, Crystal 3): 33.09 ± 3.3 J/K/mol
molar heat capacity at constant pressure (20 K, Crystal 3): 34.42 ± 0.83 J/K/mol
molar heat capacity at constant pressure (20.61 K, Crystal 3): 36.2 ± 3.6 J/K/mol
molar heat capacity at constant pressure (20.9 K, Crystal 3): 37.11 ± 3.7 J/K/mol
molar heat capacity at constant pressure (21.09 K, Crystal 3): 37.43 ± 3.7 J/K/mol
molar heat capacity at constant pressure (21.6 K, Crystal 3): 38.93 ± 3.9 J/K/mol
molar heat capacity at constant pressure (21.81 K, Crystal 3): 39.43 ± 3.9 J/K/mol
molar heat capacity at constant pressure (22.11 K, Crystal 3): 40.45 ± 0.81 J/K/mol
molar heat capacity at constant pressure (22.85 K, Crystal 3): 42.81 ± 0.86 J/K/mol
molar heat capacity at constant pressure (23.25 K, Crystal 3): 44.02 ± 0.88 J/K/mol
molar heat capacity at constant pressure (23.87 K, Crystal 3): 46 ± 0.92 J/K/mol
molar heat capacity at constant pressure (23.89 K, Crystal 3): 46.12 ± 0.93 J/K/mol
molar heat capacity at constant pressure (24.08 K, Crystal 3): 46.85 ± 0.94 J/K/mol
molar heat capacity at constant pressure (24.28 K, Crystal 3): 47.45 ± 0.95 J/K/mol
molar heat capacity at constant pressure (24.47 K, Crystal 3): 48.12 ± 0.96 J/K/mol
molar heat capacity at constant pressure (24.67 K, Crystal 3): 48.81 ± 0.98 J/K/mol
molar heat capacity at constant pressure (24.88 K, Crystal 3): 49.5 ± 0.99 J/K/mol
molar heat capacity at constant pressure (25 K, Crystal 3): 49.88 ± 1.2 J/K/mol
molar heat capacity at constant pressure (25.08 K, Crystal 3): 50.12 ± 1 J/K/mol
molar heat capacity at constant pressure (25.28 K, Crystal 3): 50.75 ± 1 J/K/mol
molar heat capacity at constant pressure (25.47 K, Crystal 3): 51.26 ± 1 J/K/mol
molar heat capacity at constant pressure (25.67 K, Crystal 3): 51.84 ± 1 J/K/mol
molar heat capacity at constant pressure (25.81 K, Crystal 3): 52.19 ± 1 J/K/mol
molar heat capacity at constant pressure (25.87 K, Crystal 3): 52.46 ± 1.1 J/K/mol
molar heat capacity at constant pressure (26.07 K, Crystal 3): 53.07 ± 1.1 J/K/mol
molar heat capacity at constant pressure (26.27 K, Crystal 3): 53.83 ± 1.1 J/K/mol
molar heat capacity at constant pressure (26.48 K, Crystal 3): 54.56 ± 1.1 J/K/mol
molar heat capacity at constant pressure (26.69 K, Crystal 3): 55.35 ± 1.1 J/K/mol
molar heat capacity at constant pressure (26.9 K, Crystal 3): 56.09 ± 1.1 J/K/mol
molar heat capacity at constant pressure (27.11 K, Crystal 3): 56.75 ± 1.1 J/K/mol
molar heat capacity at constant pressure (27.3 K, Crystal 2): 57.27 ± 1.4 J/K/mol
molar heat capacity at constant pressure (27.3 K, Crystal 3): 57.27 ± 1.4 J/K/mol
molar heat capacity at constant pressure (27.32 K, Crystal 2): 57.27 ± 1.1 J/K/mol
molar heat capacity at constant pressure (27.52 K, Crystal 2): 56.92 ± 1.1 J/K/mol
molar heat capacity at constant pressure (27.7 K, Crystal 2): 56.9 ± 1.1 J/K/mol
molar heat capacity at constant pressure (27.91 K, Crystal 2): 56.91 ± 1.1 J/K/mol
molar heat capacity at constant pressure (28.04 K, Crystal 2): 57.08 ± 1.1 J/K/mol
molar heat capacity at constant pressure (28.11 K, Crystal 2): 57.21 ± 1.1 J/K/mol
molar heat capacity at constant pressure (28.31 K, Crystal 2): 57.58 ± 1.2 J/K/mol
molar heat capacity at constant pressure (28.53 K, Crystal 2): 58.14 ± 1.2 J/K/mol
molar heat capacity at constant pressure (28.63 K, Crystal 2): 58.29 ± 1.2 J/K/mol
molar heat capacity at constant pressure (28.71 K, Crystal 2): 58.58 ± 1.2 J/K/mol
molar heat capacity at constant pressure (28.91 K, Crystal 2): 59.09 ± 1.2 J/K/mol
molar heat capacity at constant pressure (28.99 K, Crystal 2): 59.36 ± 1.2 J/K/mol
molar heat capacity at constant pressure (29.12 K, Crystal 2): 59.63 ± 1.2 J/K/mol
molar heat capacity at constant pressure (29.32 K, Crystal 2): 60.15 ± 1.2 J/K/mol
molar heat capacity at constant pressure (29.52 K, Crystal 2): 60.68 ± 1.2 J/K/mol
molar heat capacity at constant pressure (30 K, Crystal 2): 62 ± 1.5 J/K/mol
molar heat capacity at constant pressure (30.01 K, Crystal 2): 62.04 ± 1.2 J/K/mol
molar heat capacity at constant pressure (30.53 K, Crystal 2): 63.41 ± 1.3 J/K/mol
molar heat capacity at constant pressure (31.05 K, Crystal 2): 65.12 ± 1.3 J/K/mol
molar heat capacity at constant pressure (31.57 K, Crystal 2): 66.61 ± 1.3 J/K/mol
molar heat capacity at constant pressure (31.8 K, Crystal 2): 67.25 ± 1.3 J/K/mol
molar heat capacity at constant pressure (32.07 K, Crystal 2): 68.15 ± 1.4 J/K/mol
molar heat capacity at constant pressure (32.58 K, Crystal 2): 69.63 ± 1.4 J/K/mol
molar heat capacity at constant pressure (33.05 K, Crystal 2): 71.25 ± 1.4 J/K/mol
molar heat capacity at constant pressure (33.6 K, Crystal 2): 73.01 ± 1.5 J/K/mol
molar heat capacity at constant pressure (34.1 K, Crystal 2): 74.7 ± 1.5 J/K/mol
molar heat capacity at constant pressure (34.61 K, Crystal 2): 76.5 ± 1.5 J/K/mol
molar heat capacity at constant pressure (35 K, Crystal 2): 77.84 ± 1.9 J/K/mol
molar heat capacity at constant pressure (35.09 K, Crystal 2): 78.15 ± 1.6 J/K/mol
molar heat capacity at constant pressure (35.33 K, Crystal 2): 78.91 ± 1.6 J/K/mol
molar heat capacity at constant pressure (35.63 K, Crystal 2): 80.11 ± 1.6 J/K/mol
molar heat capacity at constant pressure (36.09 K, Crystal 2): 81.71 ± 1.6 J/K/mol
molar heat capacity at constant pressure (36.62 K, Crystal 2): 83.72 ± 1.7 J/K/mol
molar heat capacity at constant pressure (37.1 K, Crystal 2): 85.44 ± 1.7 J/K/mol
molar heat capacity at constant pressure (37.66 K, Crystal 2): 87.47 ± 1.8 J/K/mol
molar heat capacity at constant pressure (38.15 K, Crystal 2): 89.5 ± 1.8 J/K/mol
molar heat capacity at constant pressure (38.62 K, Crystal 2): 91.24 ± 1.8 J/K/mol
molar heat capacity at constant pressure (39.17 K, Crystal 2): 93.41 ± 1.9 J/K/mol
molar heat capacity at constant pressure (39.24 K, Crystal 2): 93.52 ± 1.9 J/K/mol
molar heat capacity at constant pressure (39.64 K, Crystal 2): 95.31 ± 1.9 J/K/mol
molar heat capacity at constant pressure (40 K, Crystal 2): 96.72 ± 2.3 J/K/mol
molar heat capacity at constant pressure (40.17 K, Crystal 2): 97.41 ± 1.9 J/K/mol
molar heat capacity at constant pressure (40.66 K, Crystal 2): 99.59 ± 2 J/K/mol
molar heat capacity at constant pressure (41.19 K, Crystal 2): 101.8 ± 2 J/K/mol
molar heat capacity at constant pressure (41.66 K, Crystal 2): 103.8 ± 2.1 J/K/mol
molar heat capacity at constant pressure (42.22 K, Crystal 2): 106.31 ± 2.1 J/K/mol
molar heat capacity at constant pressure (42.39 K, Crystal 2): 107.06 ± 2.1 J/K/mol
molar heat capacity at constant pressure (42.6 K, Crystal 2): 108.05 ± 2.2 J/K/mol
molar heat capacity at constant pressure (42.8 K, Crystal 2): 108.92 ± 2.2 J/K/mol
molar heat capacity at constant pressure (43 K, Crystal 2): 109.89 ± 2.2 J/K/mol
molar heat capacity at constant pressure (43.2 K, Crystal 2): 110.79 ± 2.2 J/K/mol
molar heat capacity at constant pressure (43.41 K, Crystal 2): 111.83 ± 2.2 J/K/mol
molar heat capacity at constant pressure (43.59 K, Crystal 2): 112.41 ± 2.2 J/K/mol
molar heat capacity at constant pressure (43.6 K, Crystal 2): 112.72 ± 2.3 J/K/mol
molar heat capacity at constant pressure (43.8 K, Crystal 2): 113.72 ± 2.3 J/K/mol
molar heat capacity at constant pressure (44.01 K, Crystal 2): 114.89 ± 2.3 J/K/mol
molar heat capacity at constant pressure (44.2 K, Crystal 2): 115.83 ± 2.3 J/K/mol
molar heat capacity at constant pressure (44.41 K, Crystal 2): 116.9 ± 2.3 J/K/mol
molar heat capacity at constant pressure (44.61 K, Crystal 2): 118.08 ± 2.4 J/K/mol
molar heat capacity at constant pressure (44.81 K, Crystal 2): 119.19 ± 2.4 J/K/mol
molar heat capacity at constant pressure (45 K, Crystal 2): 120.36 ± 2.9 J/K/mol
molar heat capacity at constant pressure (45.02 K, Crystal 2): 120.42 ± 2.4 J/K/mol
molar heat capacity at constant pressure (45.22 K, Crystal 2): 121.8 ± 2.4 J/K/mol
